Patent US11166460B2, “α-amino acrylate microbicide, and preparation method therefor and uses thereof” (priority 2017, dated 2021)
≈ marks a conversion by molar mass, not a printed value. Like-named read-outs stand apart in the source and are kept apart here.

What was measured:
[1] = test system: tobacco mosaic virus (TMV); experiment: Anti-TMV protective activity (protection mode), live friction inoculation on tobacco seedlings; format: in vivo; conditions: Tobacco mosaic virus, read-out: Anti-TMV activity, Protection effect (inhibition)
Physalospora piricola = experiment: Fungicidal activity, fungi growth rate method, PP; format: cell-based; conditions: 50 μg/mL; read-out: Fungicidal activity, inhibition, PP
Pellicularia sasakii = experiment: Fungicidal activity, fungi growth rate method, PS; format: cell-based; conditions: 50 μg/mL
[2] = test system: Phytophthora infestans (Mont) de Bary; experiment: microbe, parasite or virus in culture; format: cell-based; conditions: Phytophthora infestans
Botrytis cinerea = experiment: Fungicidal activity, fungi growth rate method, BC; format: cell-based; conditions: Botrytis cinerea, 50 μg/mL
Cercospora arachidicola = experiment: Fungicidal activity, fungi growth rate method, CA; format: cell-based; conditions: Mycosphaerella arachidis; 50 μg/mL; read-out: Fungicidal activity, inhibition, CA
wheat Gibberella zeae = experiment: microbe, parasite or virus in culture; format: cell-based; conditions: Fusarium graminearum
[3] = test system: tobacco mosaic virus (TMV); experiment: Anti-TMV inactivation activity (inactivation mode), compound mixed with TMV before inoculation of tobacco leaves; format: in vivo; conditions: Tobacco mosaic virus, read-out: Anti-TMV activity, Inactivation effect (inhibition)
Rhizoctonia cerealis = experiment: Fungicidal activity, fungi growth rate method, RC; format: cell-based; conditions: Ceratobasidium cereale, 50 μg/mL
[4] = test system: tobacco mosaic virus (TMV); experiment: Anti-TMV inducing activity (induction mode), tobacco seedlings; format: in vivo; conditions: Tobacco mosaic virus, read-out: Anti-TMV activity, Induction effect (inhibition), 100 μg/mL, tobacco seedlings
Alternaria solani = experiment: Fungicidal activity, fungi growth rate method, AS; format: cell-based; conditions: Alternaria solani, 50 μg/mL
Sclerotinia sclerotiorum = experiment: microbe, parasite or virus in culture; format: cell-based; conditions: Sclerotinia sclerotiorum; for EC90: read-out: EC90 against S. sclerotiorum in vitro; for inhibition at 50 µg/mL: 50 μg/mL
[5] = test system: tobacco mosaic virus (TMV); experiment: Anti-TMV curative activity (treatment mode), live friction inoculation on tobacco seedlings; format: in vivo; conditions: Tobacco mosaic virus, read-out: Anti-TMV activity, Curative effect (inhibition), 100 μg/mL, tobacco seedlings, checked on seventh day
[6] = read-out: Fungicidal activity, inhibition, PS
[7] = read-out: Fungicidal activity, inhibition, PI
[8] = read-out: Fungicidal activity, inhibition, BC
[9] = read-out: Fungicidal activity, inhibition, GZ
[10] = read-out: Fungicidal activity, inhibition, RC
[11] = read-out: Fungicidal activity, inhibition, AS
[12] = read-out: Fungicidal activity, inhibition, SS
[13] = read-out: Fungicidal activity (inhibition) against SS: Sclerotinia sclerotiorum
[14] = read-out: Fungicidal activity (inhibition) against PS: Pellicularia sasakii
[15] = read-out: Fungicidal activity (inhibition) against PI: Phytophthora infestans (Mont) de Bary
[16] = read-out: Fungicidal activity (inhibition) against BC: Botrytis cinerea

SMILES	inhibition at 100 µg/mL [1]	inhibition at 50 µg/mL (Physalospora piricola)	inhibition at 50 µg/mL (Pellicularia sasakii; [6])	inhibition at 50 µg/mL [2, 7]	inhibition at 50 µg/mL (Botrytis cinerea; [8])	inhibition at 50 µg/mL (Cercospora arachidicola)	inhibition at 50 µg/mL (wheat Gibberella zeae; [9])	inhibition at 100 µg/mL [3]	inhibition at 50 µg/mL (Rhizoctonia cerealis; [10])	inhibition at 100 µg/mL [4]	inhibition at 50 µg/mL (Alternaria solani; [11])	melting point	inhibition at 50 µg/mL (Sclerotinia sclerotiorum; [12])	inhibition at 100 µg/mL [5]	inhibition at 50 µg/mL (Sclerotinia sclerotiorum; [13])	other results
O=C(N/C(=C\c1ccc(Cl)cc1)C(=O)N1CCC(O)(c2ccc(Br)cc2)CC1)c1ccccc1 [Compound 18, (Z)-N-[1-[[4-(4-bromophenyl)-4-hydroxy-1-piperidinyl]carbonyl]-2-(4-chlorophenyl)ethenyl]benzamide]	39%	27%	29%	31%	34%	30%	49%	27%	29%	34%	43%	210 to 212 °C	93%	0%	–	inhibition at 50 µg/mL (Alternaria solani; read-out: Fungicidal activity (inhibition) against AS: Alternaria solani): 43%; EC90 (Sclerotinia sclerotiorum): 381 µg/mL (≈ 706 µM)
O=C(N/C(=C\c1ccc(Br)cc1)C(=O)N1CCC(O)(c2ccc(Br)cc2)CC1)c1ccccc1 [Compound 19, (Z)-N-[1-[[4-(4-bromophenyl)-4-hydroxy-1-piperidinyl]carbonyl]-2-(4-bromophenyl)ethenyl]benzamide]	46%	16%	12%	27%	4%	3%	5%	0%	19%	0%	21%	147 to 148 °C	44%	0%	–	–
O=C(N/C(=C\c1ccc(C(F)(F)F)cc1)C(=O)N1CCC(O)(c2ccc(Br)cc2)CC1)c1ccccc1 [Compound 20, (Z)-N-[1-[[4-(4-bromophenyl)-4-hydroxy-1-piperidinyl]carbonyl]-2-(4-trifluoromethylphenyl)ethenyl]benzamide]	52%	10%	21%	21%	7%	16%	7%	0%	19%	53%	17%	137 to 139 °C	67%	0%	–	–
O=C(N/C(=C\c1cccc(C(F)(F)F)c1)C(=O)N1CCC(O)(c2ccc(Br)cc2)CC1)c1ccccc1 [Compound 21, (Z)-N-[1-[[4-(4-bromophenyl)-4-hydroxy-1-piperidinyl]carbonyl]-2-(3-trifluoromethylphenyl)ethenyl]benzamide]	46%	8%	17%	2%	8%	25%	19%	58%	24%	9%	12%	118 to 120 °C	75%	35%	60 to 80%	–
O=C(N/C(=C\c1ccccc1C(F)(F)F)C(=O)N1CCC(O)(c2ccc(Br)cc2)CC1)c1ccccc1 [Compound 22]	0%	8%	15%	5%	8%	25%	28%	58%	26%	22%	12%	149 to 151 °C	100%	59%	100%	EC90 (Sclerotinia sclerotiorum): 199 µg/mL (≈ 347 µM)
O=C(N/C(=C\c1ccc([N+](=O)[O-])cc1)C(=O)N1CCC(O)(c2ccc(Br)cc2)CC1)c1ccccc1 [Compound 23, (Z)-N-[1-[[4-(4-bromophenyl)-4-hydroxy-1-piperidinyl]carbonyl]-2-(4-nitrophenyl)ethenyl]benzamide]	59%	10%	33%	17%	7%	10%	19%	4%	26%	11%	25%	186 to 188 °C	67%	0%	–	–
O=C(N/C(=C\c1c[nH]cn1)C(=O)N1CCC(O)(c2ccc(Br)cc2)CC1)c1ccccc1 [Compound 26, (Z)-N-[1-[[4-(4-bromophenyl)-4-hydroxy-1-piperidinyl]carbonyl]-2-(4-imidazole)ethenyl]benzamide]	1%	7%	0%	19%	14%	16%	2%	21%	16%	1%	21%	176 to 178 °C	78%	0%	60 to 80%	inhibition at 50 µg/mL (wheat Gibberella zeae; read-out: Fungicidal activity (inhibition) against GZ: wheat Gibberella zeae): 77%
Cc1nnsc1/C=C(\NC(=O)c1ccccc1)C(=O)N1CCC(O)(c2ccc(Br)cc2)CC1 [Compound 27, (Z)-N-[1-[[4-(4-bromophenyl)-4-hydroxy-1-piperidinyl]carbonyl]-2-[5-(4-methyl-1,2,3-thiadiazol)]ethenyl]benzamide]	37%	12%	20%	24%	26%	12%	57%	34%	23%	0%	21%	212 to 214 °C	47%	3%	–	inhibition at 50 µg/mL (Pellicularia sasakii; [14]): ~20%; inhibition at 50 µg/mL [2, 15]: ~20%; inhibition at 50 µg/mL (Botrytis cinerea; [16]): ~20%
Cc1snnc1/C=C(\NC(=O)c1ccccc1)C(=O)N1CCC(O)(c2ccc(Br)cc2)CC1 [Compound 28, (Z)-N-[1-[[4-(4-bromophenyl)-4-hydroxy-1-piperidinyl]carbonyl]-2-[4-(5-methyl-1,2,3-thiadiazol)]ethenyl]benzamide]	36%	29%	27%	19%	24%	27%	77%	3%	62%	4%	32%	231 to 233 °C	75%	43%	60 to 80%	inhibition at 50 µg/mL (Pellicularia sasakii; [14]): ~20%; inhibition at 50 µg/mL [2, 15]: ~20%; inhibition at 50 µg/mL (Botrytis cinerea; [16]): ~20%; inhibition at 50 µg/mL (Rhizoctonia cerealis; read-out: Fungicidal activity (inhibition) against RC: Rhizoctonia cerealis): 62%
CC(C)(C)OC(=O)N1CCC(c2nc(/C=C(\NC(=O)c3ccccc3)C(=O)N3CCC(O)(c4ccc(Br)cc4)CC3)cs2)CC1 [Compound 29, (Z)-N-[1-[[4-(4-bromophenyl)-4-hydroxy-1-piperidinyl]carbonyl]-2-[4-[2-[4-(1-Boc-piperidine)]thiazol]]ethenyl]benzamide]	0%	0%	11%	14%	7%	13%	3%	0%	10%	2%	6%	166 to 168 °C	67%	36%	–	–
